Experimental data from US6911454B1, “Method for potentiating primary drugs in treating multidrug resistant disease” (priority 1989, dated 2005).
Where two headings read alike, the source gives them in different places.

Assays:
[1] = d-Tetrandrine-(S) detected at the tumor; assay type: in vivo, mice; details: 3 intraperitoneal injections over 120 hours, 150 mg/kg total
[2] = L.D.50 by single escalating injections; assay type: in vivo, mice
Experimental: In addition, the effects of d-Tetrandrine-(S) plus doxorubicin in Nu/Nu athymic mice inoculated with DX20 sarcoma cells, 76×resistant when compared to the parent MES-SA cells were examined. Four cohorts of nude animals bearing the DX20 tumor were treated in groups of 5 (control, doxorubicin, d-tetrandrine, and doxorubicin+d-tetrandrine). […] (See FIG. 6). Tumor size was calculated using the formula (4 Pi/3) X*Y*2Z. […] An L.D.50 dose of 260 mg/kg was also calculated by administering single escalating injections of the compound. Tables I & II and FIG. 6 give the actual measurements.

[3] = tested on: resistant (K562-R7) cancel cells; test: doxorubicin fluorescence test by flow cytometry; assay type: cell-based; details: FIG. 12, resistant cells pre-incubated with tetrandrine
[4] = tested on: CQ-sensitive (FCMSU1/Sudan) strain of P. falciparum; test: 3H-adenosine incorporation, chloroquine-sensitive P. falciparum; assay type: cell-based
Experimental: (§1) Chloroquine and qinghaosu are commonly used antimalarial drugs.
(§2) The dose (IC50) of each drug or each drug combination required to effect a 50% inhibition in the malarial activity of each strain was determined by establishing a dose response curve for each.
(§3) FCMSU1/Sudan strain and cloned Indochina (W-2) strain of P. falciparum were used. […] The two strains of the parasite were cultured according to the candle jar method of Trager and Jensen, Science, Vol. 193, pages 673-675 (1976). In a given experiment, four-day-old Petri dish cultures (approximately 10% parasitemia) were diluted with medium containing an amount of noninfected type A human erythrocytes to obtain a culture with a final hematocrit of 1.5% and parasitemia of 0.5-1.0%. The resulting culture was ready for addition to microtitration plates with ninety-six flat-bottom wells.
(§4) The testing procedure used was similar to that described by Desjardins et al. in “Antimicrobial Agents and Chemotherapy,” Vol. 16, pages 710-718 (1979). […] 25 microliters radioactive (0.5 microCi) [2,8-^3H] adenosine. The microtitration plates were incubated in a candle jar for an additional 18 hours, at 37° C.
(§5) As the malaria parasite grows ^3H-adenosine is metabolized and incorporates into polymeric RNA and DNA. The labeled polymers are trapped on glass fiber filters and unincorporated material is washed away. In the absence of drug there is 100% incorporation of the labeled material. When drugs interfere (directly or indirectly), an inhibitory dose of 50% (IC50) can be calculated. The experiments were repeated three times except where noted. Statistical analysis was done using Student's T-test for significance. Van Kyke et al. “Exp. Parasitol,” Vol. 64, pages 418-423 (1987).
(§6) The test procedure was basically the same as outlined above.

[5] = tested on: CQ-resistant (W-2) strain of P. falciparum; test: 3H-adenosine incorporation, chloroquine-resistant P. falciparum; assay type: cell-based
Experimental: as §1, §2, §3, §4, §5, §6

A2780AD10 = details: FIG. 4; A2780AD10 versus parent A2780; addition of d-tetrandrine

In the case of COc1ccc2cc1Oc1ccc(cc1)C[C@H]1c3cc(c(OC)cc3CCN1C)Oc1c(OC)c(OC)cc3c1[C@H](C2)N(C)CC3 [TT, tetrandrine], the “d-Tetrandrine-(S) detected at the tumor” value [1] is reported as 54 micrograms/gram tissue, the L.D.50 dose [2] is reported as 260 mg/kg and the “doxorubicin concentration (fluorescence) in resistant versus sensitive cells” value ([3]; listed as d-tetrandrine) is reported as “greater in the resistant cancer than it is in the sensitive cancer”. For the same molecule, the “doxorubicin concentration (fluorescence) in resistant versus sensitive cells” value ([3]; listed as tetrandrine (TT)) was “contains more doxorubicin than the sensitive strain”, the IC50 ([4]; S STRAIN, TT/CQ 10:1, mean ± S.D, read-out: IC50 DRUG COMBINATION TT(2.0 uM) CQ(0.2 uM)) was 114 ± 23 nM and the IC50 ([4]; S STRAIN, TT/QHS 10:1, mean ± S.D, read-out: IC50 DRUG COMBINATION TT(2.0 uM) QHS(0.2 uM)) was 114 ± 6.3 nM. For the same molecule, the IC50 ([4]; Table III, S STRAIN, mean ± S.D, read-out: IC50 SINGLE DRUG) was 498 ± 93.7 nM, the IC50 ([4]; Table IV, S STRAIN, mean ± S.D, read-out: IC50 SINGLE DRUG) was 410 ± 69 nM and the IC50 ([4]; Table VII, chloroquine-sensitive strain, drug alone, read-out: IC50 S) was 290 nM. For the same molecule, the IC50 ([4]; read-out: IC50 DRUG COMBINATION TT(1.0 uM) CQ(0.3 uM), S STRAIN, TT/CQ 10:3, mean ± S.D) was 54.9 ± 7.1 nM, the IC50 ([4]; read-out: IC50 DRUG COMBINATION TT(1.0 uM) QHS(0.3 uM), S STRAIN, TT/QHS 10:3, mean ± S.D) was 71.9 ± 8.9 nM and the IC50 ([4]; read-out: IC50 DRUG COMBINATION TT(3.0 uM) CQ(0.1 uM), S STRAIN, TT/CQ 30:1, mean ± S.D) was 223 ± 38.6 nM. It also gave an IC50 ([4]; read-out: IC50 DRUG COMBINATION TT(3.0 uM) QHS(0.1 uM), S STRAIN, TT/QHS 30:1, mean ± S.D) of 220 ± 35.5 nM, an IC50 ([5]; R STRAIN, TT/CQ 10:1, mean ± S.D, read-out: IC50 DRUG COMBINATION TT(2.0 uM) CQ(0.2 uM)) of 79.5 ± 16.1 nM and an IC50 ([5]; R STRAIN, TT/QHS 10:1, mean ± S.D, read-out: IC50 DRUG COMBINATION TT(2.0 uM) QHS(0.2 uM)) of 71.8 ± 13.8 nM. For the same molecule, the IC50 ([5]; Table III, R STRAIN, mean ± S.D, read-out: IC50 SINGLE DRUG) was 198 ± 24.7 nM, the IC50 ([5]; Table IV, R STRAIN, mean ± S.D, read-out: IC50 SINGLE DRUG) was 206 ± 49.8 nM and the IC50 ([5]; Table VII, chloroquine-resistant strain, drug alone, read-out: IC50 R) was 120 nM. It also gave an IC50 ([5]; read-out: IC50 DRUG COMBINATION TT(1.0 uM) CQ(0.3 uM), R STRAIN, TT/CQ 10:3, mean ± S.D) of 79.5 ± 13.7 nM, an IC50 ([5]; read-out: IC50 DRUG COMBINATION TT(1.0 uM) QHS(0.3 uM), R STRAIN, TT/QHS 10:3, mean ± S.D) of 59.6 ± 13.7 nM and an IC50 ([5]; read-out: IC50 DRUG COMBINATION TT(3.0 uM) CQ(0.1 uM), R STRAIN, TT/CQ 30:1, mean ± S.D) of 125 ± 9.6 nM. For the same molecule, the IC50 ([5]; read-out: IC50 DRUG COMBINATION TT(3.0 uM) QHS(0.1 uM), R STRAIN, TT/QHS 30:1, mean ± S.D) was 137 ± 41.6 nM and the doxorubicin resistance reversal (A2780AD10) was “either partially or completely reversed”.
